{"source": "patent US20070128669A1", "about": "“Serum-free expansion of cells in culture” (Institute for Chemical Genomics, priority 2005, published 2007)", "molecules": {"B1": {"name": "Wnt3a: purified Wnt3a protein purchased from R&D Systems (protein, UniProt P56704 19-352, looked up)", "Protein Wnt-3a": "SYPIWWSLAVGPQYSSLGSQPILCASIPGLVPKQLRFCRNYVEIMPSVAEGIKIGIQECQHQFRGRRWNCTTVHDSLAIFGPVLDKATRESAFVHAIASAGVAFAVTRSCAEGTAAICGCSSRHQGSPGKGWKWGGCSEDIEFGGMVSREFADARENRPDARSAMNRHNNEAGRQAIASHMHLKCKCHGLSGSCEVKTCWWSQPDFRAIGDFLKDKYDSASEMVVEKHRESRGWVETLRPRYTYFKVPTERDLVYYEASPNFCEPNPETGSFGTRDRTCNVSSHGIDGCDLLCCGRGHNARAERRREKCRCVFHWCCYVSCQECTRVYDVHTCK"}}, "key": {"[1]": {"tested_on": "Nanog gene expression in ESCs", "assay": "Real-time RT-PCR for Nanog in feeder-free ESCs", "type": "cell-based, mouse", "conditions": "feeder-free ESCs; IQ-1 4 μg/ml or LIF 1000 U/ml, 21 hrs", "procedure": "FIG. 2. […] Real-time RT-PCR for Nanog was performed. The control expression level of Nanog at day 0 was set at 1. FIG. 2B, removal of IQ-1 decreases Nanog gene expression in ESCs. IQ-1 was removed from ESCs which had been cultured under feeder-free system and in the presence of IQ-1 (4 μg/ml), for three days. At the end of this period, mRNA was isolated and real-time RT-PCR was performed to assay for Nanog gene expression. FIG. 2C, effects of IQ-1 were not mediated through Stat3 signaling pathway as judged by luciferase reporter assay. Feeder-free ESCs, transfected with the pSTAT3-TA-Luc reporter, were exposed to IQ-1 at the indicated doses, or LIF. All error bars represent mean±SD.\nReal-time RT-PCR. Total RNA was isolated and reverse-transcribed using SuperScript III (Invitrogen). Real-time RT-PCR (Sybr Green; BioRad) was performed using with the gene-specific primers: […]"}, "Stat3 signaling pathway": {"tested_on": "Stat3 signaling pathway", "assay": "pSTAT3-TA-Luc luciferase reporter assay in ESCs", "type": "cell-based, mouse", "conditions": "24 hours exposure", "procedure": "Transfection and Luciferase assay. ESCs were cultured in 96-well cell culture dishes coated with a 0.1% aqueous gelatin solution and transfected with 0.2 μg/well of pSTAT3-TA-Luc (CLONTECH), using Lipofectamine 2000 (Invitrogen). After 6 hours, cells were washed and exposed to either IQ-1 at the indicated doses, or LIF, for 24 hours. Transfection efficiencies were normalized with pRL-null luciferase plasmid. Luciferase assays were performed with the DUAL-Luciferase Reporter Assay System (Promega)."}, "CBP/β-catenin complex": {"molecular_target": "T1, CBP/β-catenin complex (Mus musculus, UniProt P45481)", "T1 construct": "endogenous in cells; host or cells: P19 cells (nuclear fraction)", "T1 sequence (P45481 2-2441 limits assumed, one chain of several)": "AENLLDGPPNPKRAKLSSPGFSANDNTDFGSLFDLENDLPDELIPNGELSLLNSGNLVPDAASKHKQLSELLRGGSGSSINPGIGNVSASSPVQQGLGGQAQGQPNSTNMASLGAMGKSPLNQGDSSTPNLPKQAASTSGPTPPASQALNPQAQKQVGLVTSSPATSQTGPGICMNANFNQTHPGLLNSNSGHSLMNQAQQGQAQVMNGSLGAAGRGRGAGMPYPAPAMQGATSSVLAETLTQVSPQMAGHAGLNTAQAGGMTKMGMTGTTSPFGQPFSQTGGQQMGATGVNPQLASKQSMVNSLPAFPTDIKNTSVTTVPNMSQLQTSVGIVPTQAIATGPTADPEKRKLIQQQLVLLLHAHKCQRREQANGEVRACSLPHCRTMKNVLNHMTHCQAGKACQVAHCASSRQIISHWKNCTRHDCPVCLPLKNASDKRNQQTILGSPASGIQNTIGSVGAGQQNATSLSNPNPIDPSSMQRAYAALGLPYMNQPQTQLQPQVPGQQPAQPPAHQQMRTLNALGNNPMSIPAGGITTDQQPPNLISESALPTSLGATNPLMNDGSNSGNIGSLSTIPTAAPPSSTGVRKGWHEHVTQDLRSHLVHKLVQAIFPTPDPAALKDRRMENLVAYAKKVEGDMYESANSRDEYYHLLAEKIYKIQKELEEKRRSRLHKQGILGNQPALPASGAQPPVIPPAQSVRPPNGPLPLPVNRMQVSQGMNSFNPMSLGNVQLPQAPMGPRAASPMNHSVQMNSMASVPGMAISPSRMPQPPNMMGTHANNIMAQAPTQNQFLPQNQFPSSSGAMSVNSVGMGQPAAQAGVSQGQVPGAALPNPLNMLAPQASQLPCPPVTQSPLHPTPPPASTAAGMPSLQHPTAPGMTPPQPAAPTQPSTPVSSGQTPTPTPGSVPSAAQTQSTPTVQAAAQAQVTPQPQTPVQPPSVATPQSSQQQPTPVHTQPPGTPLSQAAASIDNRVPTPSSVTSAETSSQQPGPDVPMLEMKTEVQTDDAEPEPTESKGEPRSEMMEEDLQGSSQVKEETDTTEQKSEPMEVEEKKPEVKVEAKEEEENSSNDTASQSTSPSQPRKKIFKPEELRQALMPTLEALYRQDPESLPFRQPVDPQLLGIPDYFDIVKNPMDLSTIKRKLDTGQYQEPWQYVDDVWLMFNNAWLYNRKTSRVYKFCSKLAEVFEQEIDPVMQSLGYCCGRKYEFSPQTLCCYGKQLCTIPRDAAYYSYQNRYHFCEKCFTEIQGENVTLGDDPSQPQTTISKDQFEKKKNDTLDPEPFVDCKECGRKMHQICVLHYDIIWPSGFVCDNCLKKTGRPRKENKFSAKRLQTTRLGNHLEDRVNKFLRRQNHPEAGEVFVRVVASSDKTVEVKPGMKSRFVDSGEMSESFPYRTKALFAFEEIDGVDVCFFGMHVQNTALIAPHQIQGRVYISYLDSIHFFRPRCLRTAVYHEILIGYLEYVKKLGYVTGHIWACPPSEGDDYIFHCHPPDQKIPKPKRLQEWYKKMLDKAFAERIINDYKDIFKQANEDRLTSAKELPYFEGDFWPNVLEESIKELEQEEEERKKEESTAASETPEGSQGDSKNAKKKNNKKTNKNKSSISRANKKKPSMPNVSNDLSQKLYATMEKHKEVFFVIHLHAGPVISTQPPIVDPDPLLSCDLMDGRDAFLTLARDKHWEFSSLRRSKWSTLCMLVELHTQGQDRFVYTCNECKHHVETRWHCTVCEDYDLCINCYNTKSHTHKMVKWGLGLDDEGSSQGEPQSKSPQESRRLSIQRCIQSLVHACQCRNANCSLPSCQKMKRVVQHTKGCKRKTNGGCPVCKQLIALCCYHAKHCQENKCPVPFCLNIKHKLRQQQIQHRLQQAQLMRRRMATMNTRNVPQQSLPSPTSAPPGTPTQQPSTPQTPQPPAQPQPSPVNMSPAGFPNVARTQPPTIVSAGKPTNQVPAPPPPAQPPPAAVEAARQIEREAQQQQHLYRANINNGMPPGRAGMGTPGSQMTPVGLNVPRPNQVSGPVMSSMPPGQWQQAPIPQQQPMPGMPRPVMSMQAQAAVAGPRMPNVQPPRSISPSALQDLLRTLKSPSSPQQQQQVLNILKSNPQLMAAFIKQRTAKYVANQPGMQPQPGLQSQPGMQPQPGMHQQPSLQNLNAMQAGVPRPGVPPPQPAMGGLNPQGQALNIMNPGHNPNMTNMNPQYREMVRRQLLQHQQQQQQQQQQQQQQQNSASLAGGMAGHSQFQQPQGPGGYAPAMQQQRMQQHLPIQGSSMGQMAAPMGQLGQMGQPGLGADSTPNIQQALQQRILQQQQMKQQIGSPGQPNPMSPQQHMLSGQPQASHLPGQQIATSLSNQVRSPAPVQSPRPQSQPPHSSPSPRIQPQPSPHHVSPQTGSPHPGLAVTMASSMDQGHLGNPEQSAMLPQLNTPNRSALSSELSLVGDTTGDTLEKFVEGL", "assay": "Co-immunoprecipitation of β-catenin with CBP in P19 cells", "type": "cell-based", "conditions": "Wnt3a, 10 μM, 24 hours", "procedure": "(§1) Co-immunoprecipitation of β-catenin with CBP or p300 in P19 cells. Co-immunoprecipitation was performed as described in (27). Briefly, P19 cells were treated with 10 μM ICG-001 or 10 μM IQ-1 (control DMSO was 0.025%) for 24 hours, after which they were washed and lysed […]. Nuclear fraction was isolated and precleared with antibodies to CBP(A-22) or p300(N-15). β-catenin was detected using a mouse monoclonal antibody (Becton Dickinson) at a dilution of 1:5000."}, "p300/β-catenin complex": {"tested_on": "p300/β-catenin complex", "assay": "Co-immunoprecipitation of β-catenin with p300 in P19 cells", "type": "cell-based", "conditions": "Wnt3a, 10 μM, 24 hours", "procedure": "as §1"}, "C2C12 myoblasts": {"tested_on": "C2C12 myoblasts", "assay": "Differentiation of C2C12 myoblasts in growth medium", "type": "cell-based", "conditions": "10 μM in growth medium", "procedure": "FIG. 12. FIG. 12 illustrates that differentiation of C2C12 myoblasts was induced by 10 μM ICG-001 in growth medium, similar to differentiation medium."}, "ESCs": {"tested_on": "ESCs", "assay": "Long term feeder-free culture of ESCs in serum-free (15% KSR) media", "type": "cell-based, mouse", "procedure": "FIG. 7. […] ESCs were cultured in 15% KSR, 4 μg/ml of IQ-1 and 100 ng/ml Wnt3a. ESCs were passaged 2-3 times per week at 1×10^5-1×10^6 cells per 6 cm dish and cells were counted.\nFIG. 8. […] AP activity of ESCs cultured for 7 days in IQ-1 containing media supplemented with 15% FCS or 15% KSR. […] (Error bars represent ±S.D.)\nFIG. 9. […] Over the 42-day culture period, ESCs cultured in the media in the presence of IQ-1 and Wnt3a maintain expression of the pluripotency markers, (a) Nanog, (b) Oct3/4 and (c) Rex-1. The expression level on day 0 was set as 1.\nCell culture. ESCs, D3ES (ATCC CRL-1934) were maintained on Mitomycin C treated MEFs in mouse ESC medium containing DMEM (Invitrogen) supplemented with 15% FBS (Invitrogen), 0.1 mM MEM nonessential amino acids (Invitrogen), 0.1 mM 2-mercaptoethanol (Sigma), 2 mM L-glutamine (Invitrogen) and 1,000 U/ml LIF (CHEMICON). To remove MEFs, cells were collected by trypsinization and plated on gelatin-coated culture dishes for 20 min. Non-adherent cells consisting mainly of ESCs were replated on gelatin-coated culture dishes again. Non-adherent cells were used for further experiments. P19 cells were cultured according to conditions recommended by the ATCC. Cells were incubated at 37° C. in a 5% CO2 incubator. Purified Wnt3a was purchased (R&D Systems)."}}}
{"molecule": "LIF: cytokine leukemia inhibitory factor (CHEMICON)", "values": [{"measurement": "Nanog expression", "setting": "[1]", "value": "only slightly increased Nanog levels"}, {"measurement": "Stat3/luciferase expression", "setting": "Stat3 signaling pathway", "value": "elicited a significant response"}]}
{"molecule": "O=C1[C@H](Cc2ccc(O)cc2)N2C(=O)CCN(C(=O)NCc3ccccc3)[C@H]2CN1Cc1cccc2ccccc12", "note": "[ICG-001, reference compound]", "values": [{"measurement": "relative amount of β-catenin associated with CBP", "setting": "CBP/β-catenin complex", "value": "at the expense of the CBP/β-catenin interaction"}, {"measurement": "p300/β-catenin interaction", "setting": "p300/β-catenin complex", "value": "significantly enhanced the p300/β-catenin interaction"}, {"measurement": "differentiation of C2C12 myoblasts", "setting": "C2C12 myoblasts", "value": "induced the differentiation of C2C12 myoblasts"}]}
{"molecule": "B1", "values": [{"measurement": "AP activity of ESCs on addition of Wnt3a to IQ-1 containing 15% KSR media", "setting": "ESCs; 7 days, IQ-1 containing media, 15% KSR", "value": "increases AP activity"}, {"measurement": "ESC proliferation, Wnt3a alone", "setting": "ESCs; KSR media", "value": "induced proliferation"}, {"measurement": "expression of stem cell markers Oct4, Nanog, Rex1, Wnt3a alone", "setting": "ESCs; KSR media", "value": "not sufficient to maintain the expression"}, {"measurement": "maintenance of undifferentiated status of ESCs, agent alone", "setting": "ESCs; KSR media, single agent", "value": "Neither Wnt3a nor IQ-1 alone was sufficient"}]}
